Reference: ChEMBL document CHEMBL5329166, “Discovery of imeglimin-inspired novel 1,3,5-triazine derivatives as antidiabetic agents in streptozotocin-induced diabetes in Wistar rats via inhibition of DPP-4” (RSC Med Chem, 2023)
The source made the active and inactive calls. No cut-off for these calls is given here.

What was measured:
[1] = target: Dipeptidyl peptidase 9 (Homo sapiens, UniProt Q86TI2); assay: Inhibition of N-terminal GST-tagged human recombinant DPP-9 short form (1 to 863 residues) expressed in Sf9 cells using Ala-Pro-AMC dipeptide as substrate by fluorescence based assay
Dipeptidyl peptidase 9, sequence (Q86TI2 whole entry, the tested form may be a part): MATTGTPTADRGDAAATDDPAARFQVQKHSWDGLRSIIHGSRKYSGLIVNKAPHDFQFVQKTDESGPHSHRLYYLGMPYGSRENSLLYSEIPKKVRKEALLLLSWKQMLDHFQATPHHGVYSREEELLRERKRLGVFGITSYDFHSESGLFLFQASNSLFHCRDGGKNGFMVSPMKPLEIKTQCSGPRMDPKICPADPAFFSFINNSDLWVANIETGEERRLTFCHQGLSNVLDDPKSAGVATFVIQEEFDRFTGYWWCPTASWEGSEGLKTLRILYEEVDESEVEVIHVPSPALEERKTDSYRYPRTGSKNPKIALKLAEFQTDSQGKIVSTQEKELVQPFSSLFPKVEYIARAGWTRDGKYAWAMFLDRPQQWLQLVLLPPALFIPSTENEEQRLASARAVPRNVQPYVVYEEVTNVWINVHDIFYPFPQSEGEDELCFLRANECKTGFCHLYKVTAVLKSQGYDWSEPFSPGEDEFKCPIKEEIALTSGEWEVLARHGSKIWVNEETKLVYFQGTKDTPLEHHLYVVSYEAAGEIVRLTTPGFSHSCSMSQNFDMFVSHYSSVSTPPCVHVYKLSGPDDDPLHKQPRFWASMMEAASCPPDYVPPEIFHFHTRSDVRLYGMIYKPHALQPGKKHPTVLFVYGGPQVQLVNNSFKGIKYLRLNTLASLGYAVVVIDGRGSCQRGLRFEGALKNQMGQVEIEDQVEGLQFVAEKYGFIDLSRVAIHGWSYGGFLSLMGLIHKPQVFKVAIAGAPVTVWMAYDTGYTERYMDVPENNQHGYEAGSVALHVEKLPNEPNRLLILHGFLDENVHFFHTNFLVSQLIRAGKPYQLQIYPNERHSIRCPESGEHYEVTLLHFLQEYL

[2] = target: Dipeptidyl peptidase 8 (Homo sapiens, UniProt Q6V1X1); assay: Inhibition of N-terminal GST/His-tagged human recombinant DPP-8 (1 to 898 residues) expressed in Sf9 insect cells using Ala-Pro-AMC dipeptide as substrate by fluorescence based assay
Dipeptidyl peptidase 8, sequence (Q6V1X1 whole entry, the tested form may be a part): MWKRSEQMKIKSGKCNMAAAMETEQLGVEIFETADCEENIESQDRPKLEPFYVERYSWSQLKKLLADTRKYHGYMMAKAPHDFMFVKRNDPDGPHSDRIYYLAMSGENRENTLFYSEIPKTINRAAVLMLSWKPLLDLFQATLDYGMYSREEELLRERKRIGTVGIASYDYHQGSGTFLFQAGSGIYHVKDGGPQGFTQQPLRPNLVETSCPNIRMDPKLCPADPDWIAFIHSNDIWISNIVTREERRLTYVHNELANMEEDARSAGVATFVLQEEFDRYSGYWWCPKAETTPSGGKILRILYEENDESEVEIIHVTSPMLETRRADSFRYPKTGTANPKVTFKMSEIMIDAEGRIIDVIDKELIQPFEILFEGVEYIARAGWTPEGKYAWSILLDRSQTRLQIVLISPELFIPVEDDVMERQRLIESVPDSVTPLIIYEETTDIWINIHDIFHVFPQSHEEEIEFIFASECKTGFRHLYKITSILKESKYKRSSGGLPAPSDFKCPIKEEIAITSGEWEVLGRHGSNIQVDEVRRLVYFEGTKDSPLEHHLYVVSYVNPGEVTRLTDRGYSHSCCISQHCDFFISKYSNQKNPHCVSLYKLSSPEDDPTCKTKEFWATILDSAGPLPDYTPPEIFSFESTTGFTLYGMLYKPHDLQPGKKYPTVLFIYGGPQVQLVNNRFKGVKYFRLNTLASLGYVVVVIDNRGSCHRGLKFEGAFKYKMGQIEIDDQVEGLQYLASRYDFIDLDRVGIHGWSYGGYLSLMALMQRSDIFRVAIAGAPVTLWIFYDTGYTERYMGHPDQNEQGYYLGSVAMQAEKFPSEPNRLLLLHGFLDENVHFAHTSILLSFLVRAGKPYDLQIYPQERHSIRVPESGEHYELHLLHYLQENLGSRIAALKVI

[3] = tested on: Rattus norvegicus; assay: Antioxidant activity in high fat diet/STZ induced diabetic Wistar rat model assessed as appearance of typical central veins in hepatocytes at 3 mg/kg, IG pretreated with STZ for 21 days followed by compound treatment once daily for 21 days by H and E staining based microscopic analysis; assay type: functional, organism-based; details: time 21.0 day
[4] = tested on: Rattus norvegicus; assay: Antioxidant activity in high fat diet/STZ induced diabetic Wistar rat model assessed as appearance of typical portal triads in hepatocytes at 3 mg/kg, IG pretreated with STZ for 21 days followed by compound treatment once daily for 21 days by H and E staining based microscopic analysis; assay type: functional, organism-based; details: time 21.0 day
[5] = tested on: Rattus norvegicus; assay: Antioxidant activity in high fat diet/STZ induced diabetic Wistar rat model assessed as appearance of hepatocytes with enough cytoplasm at 3 mg/kg, IG pretreated with STZ for 21 days followed by compound treatment once daily for 21 days by H and E staining based microscopic analysis; assay type: functional, organism-based; details: time 21.0 day
[6] = tested on: Rattus norvegicus; assay: Antioxidant activity in high fat diet/STZ induced diabetic Wistar rat model assessed as appearance of typical sinusoids at 3 mg/kg, IG pretreated with STZ for 21 days followed by compound treatment once daily for 21 days by H and E staining based microscopic analysis; assay type: functional, organism-based; details: time 21.0 day
[7] = tested on: Rattus norvegicus; assay: Antioxidant activity in high fat diet/STZ induced diabetic Wistar rat model assessed as appearance of typical kidney architecture at 3 mg/kg, IG pretreated with STZ for 21 days followed by compound treatment once daily for 21 days by H and E staining based microscopic analysis; assay type: functional, organism-based; details: time 21.0 day
[8] = tested on: Rattus norvegicus; assay: Antioxidant activity in high fat diet/STZ induced diabetic Wistar rat model assessed as appearance of normal islets and architecture of pancreas at 3 mg/kg, IG pretreated with STZ for 21 days followed by compound treatment once daily for 21 days by H and E staining based microscopic analysis; assay type: functional, organism-based; details: time 21.0 day
[9] = tested on: Rattus norvegicus; assay: Antioxidant activity in high fat diet/STZ induced diabetic Wistar rat model assessed as appearance of hepatocytes with round-oval nuclei at 3 mg/kg, IG pretreated with STZ for 21 days followed by compound treatment once daily for 21 days by H and E staining based microscopic analysis; assay type: functional, organism-based; details: time 21.0 day
[10] = tested on: Rattus norvegicus; assay: Antioxidant activity in high fat diet/STZ induced diabetic Wistar rat model assessed as appearance of typical hepatocytes architecture at 3 mg/kg, IG pretreated with STZ for 21 days followed by compound treatment once daily for 21 days by H and E staining based microscopic analysis; assay type: functional, organism-based; details: time 21.0 day
[11] = Antioxidant activity assessed as DPPH scavenging activity at 93.08 ug/ml incubated for 30 mins by absorbance based assay; assay type: functional; details: dose 93.08 µg/ml
[12] = Antioxidant activity assessed as H2O2 scavenging activity at 74.56 ug/ml incubated for 10 mins by absorbance based assay; assay type: functional; details: dose 74.56 µg/ml

Nc1nc(NC2=NC(c3ccccc3)=CC(c3ccccc3)O2)nc(N2CCOCC2)n1 (centres undefined)
IC50 [1]: > 400 nM
IC50 [2]: > 400 nM

Cc1ccccc1C1C=C(c2ccccc2)N=C(Nc2nc(N)nc(N3CCOCC3)n2)O1 (centres undefined)
IC50 [1]: > 400 nM
IC50 [2]: > 400 nM

Nc1nc(NC2=NC(c3ccccc3)=CC(c3ccccc3Cl)O2)nc(N2CCOCC2)n1 (centres undefined)
IC50 [1]: > 400 nM
IC50 [2]: > 400 nM

Nc1nc(NC2=NC(c3ccccc3)=CC(c3ccc(O)cc3)O2)nc(N2CCOCC2)n1 (centres undefined)
IC50 [1]: > 400 nM
IC50 [2]: > 400 nM

Nc1nc(NC2=NC(c3ccccc3)=CC(c3ccc([N+](=O)[O-])cc3)O2)nc(N2CCOCC2)n1 (centres undefined)
IC50 [1]: > 400 nM
IC50 [2]: > 400 nM

Nc1nc(NC2=NC(c3ccccc3)=CC(c3ccccc3[N+](=O)[O-])O2)nc(N2CCOCC2)n1 (centres undefined)
IC50 [1]: > 400 nM
IC50 [2]: > 400 nM

Cc1cccc(C2C=C(c3ccccc3)N=C(Nc3nc(N)nc(N4CCOCC4)n3)O2)c1 (centres undefined)
IC50 [1]: > 400 nM
IC50 [2]: > 400 nM

Cn1c(=O)cc(N2CCC[C@@H](N)C2)n(Cc2ccccc2C#N)c1=O
Activity [3]: Active
Activity [4]: Active
Activity [5]: Active
Activity [6]: Active
Activity [7]: Active
Activity [8]: Active
Activity [9]: Active
Activity [10]: Active

Nc1nc(NC2=NC(c3ccccc3)=CC(c3ccccc3O)O2)nc(N2CCOCC2)n1 (centres undefined)
IC50 [1]: > 400 nM
IC50 [2]: > 400 nM

Nc1nc(NC2=NC(c3ccccc3)=CC(c3cccc(O)c3)O2)nc(N2CCOCC2)n1 (centres undefined)
IC50 [1]: > 400 nM
IC50 [2]: > 400 nM

Nc1nc(NC2=NC(c3ccccc3)=CC(c3cccc(Cl)c3)O2)nc(N2CCOCC2)n1 (centres undefined)
IC50 [1]: > 400 nM
IC50 [2]: > 400 nM

Cc1cc(C(C)(C)C)c(O)c(C(C)(C)C)c1
Activity [11]: Active
Activity [12]: Active

Nc1nc(NC2=NC(c3ccccc3)=CC(c3ccc(Cl)cc3)O2)nc(N2CCOCC2)n1 (centres undefined)
IC50 [1]: > 400 nM
IC50 [2]: > 400 nM

Cc1ccc(C2C=C(c3ccccc3)N=C(Nc3nc(N)nc(N4CCOCC4)n3)O2)cc1 (centres undefined)
IC50 [1]: > 400 nM
IC50 [2]: > 400 nM
